Experimental data taken from patent US20140038289A1, “NONADHESIVE SPHERE CELL CULTURE CONTAINER, SYSTEM, AND METHOD” (NATIONAL DEFENSE MEDICAL CENTER, priority 2012, published 2014).

Experiments:
Format in all cases: cell-based
[1] = test system: human oral squamous carcinoma cell line OECM-1; experiment: Combined chemo- and radiotherapy (CCRT) treatment, OECM-1 parental cells and spheres; conditions: 20 μM Cisplatin for 24 hours followed by radiotherapy, FIG. 4(C)
Protocol: (§1) Cells were seeding in 10-cm cell culture dish at a density of 1×10^6 cells/dish. For the chemosensitivity assay, cells were treated with 10 to 200 μM Cisplatin (Sigma, St Louis, Mo., U.S.A.) for 48 hours. For the radiosensitivity assay, cells were irradiated using a CyberKnife® radiosurgery system (Accuray, Sunnyvale, Calif., U.S.A.) to deliver different doses (2-10 Gy). Relative survival fraction of cells was determined by MTS assay using the CellTiter® 96 Aqueous One Solution Cell Proliferation Assay kit (Promega, Madison, Wis., U.S.A.) after 36 hours of radiation treatment. To imitate the clinical condition, a combined chemo- and radiotherapy (CCRT) treatment was administered on SAS and OECM-1 parental cells and their spheres. Please refer to FIG. 4(C), which depicts the survival (%) of SAS and OECM-1 parental cells and their spheres after Cisplatin treatment followed by radiation treatment. This assay was performed by treating cells with chemotherapy using 20 μM Cisplatin for 24 hours followed by radiotherapy. […] Please refer to FIG. 4(D), which depicts the survival (%) of SAS and OECM-1 parental cells and their spheres after radiation treatment followed by Cisplatin treatment. […]

[2] = test system: human tongue cancer cell line SAS; experiment: Chemosensitivity assay (MTS), SAS parental cells and spheres; conditions: Cisplatin doses up to 200 μM for 48 hours, FIG. 4(B)
Protocol: (§2) Cells were seeding in 10-cm cell culture dish at a density of 1×10^6 cells/dish. For the chemosensitivity assay, cells were treated with 10 to 200 μM Cisplatin (Sigma, St Louis, Mo., U.S.A.) for 48 hours. For the radiosensitivity assay, cells were irradiated using a CyberKnife® radiosurgery system (Accuray, Sunnyvale, Calif., U.S.A.) to deliver different doses (2-10 Gy). Relative survival fraction of cells was determined by MTS assay using the CellTiter® 96 Aqueous One Solution Cell Proliferation Assay kit (Promega, Madison, Wis., U.S.A.) after 36 hours of radiation treatment. Please refer to FIG. 4(A), which depicts the survival (%) of SAS and OECM-1 parental cells and their spheres after radiation treatment, and cell viability was evaluated after these cells were treated with radiation doses up to 10 Gy for 36 hours and were subject to a MTS assay. In FIG. 4(A), SAS and OECM-1 spheres were more radioresistant than their parental cells. Please refer to FIG. 4(B), which depicts the survival (%) of SAS and OECM-1 parental cells and their spheres after the Cisplatin treatment, and cell viability was evaluated after these cells were treated with Cisplatin doses up to 200 μM for 48 hours and were subject to a MTS (3-(4,5-dimethylthiazol-2-yl)-5-(3-carboxymethoxyphenyl)-2-(4-sulfophenyl)-2H-tetrazolium) assay.

[3] = test system: human oral squamous carcinoma cell line OECM-1; experiment: Chemosensitivity assay (MTS), OECM-1 parental cells and spheres; conditions: Cisplatin doses up to 200 μM for 48 hours, FIG. 4(B)
Protocol: as §2

[4] = test system: human tongue cancer cell line SAS; experiment: Combined chemo- and radiotherapy (CCRT) treatment, SAS parental cells and spheres; conditions: 20 μM Cisplatin for 24 hours followed by radiotherapy, FIG. 4(C)
Protocol: as §1

## N.N.[Cl][Pt][Cl] [Cisplatin]
[1]
  survival (%) after Cisplatin treatment followed by radiation treatment, vs single treatment: more effective in reducing the survival rate of the parental cells and spheres compared with the single treatment
[2]
  survival (%) after Cisplatin treatment, spheres vs parental cells: spheres were more resistant to Cisplatin than their parental cells
[3]
  survival (%) after Cisplatin treatment, spheres vs parental cells: spheres were more resistant to Cisplatin than their parental cells
[4]
  survival (%) after Cisplatin treatment followed by radiation treatment, vs single treatment: more effective in reducing the survival rate of the parental cells and spheres compared with the single treatment
